Data published in patent EP4786472A1, “BRD4 PROTEIN DEGRADATION AGENT COMPOUND, AND PREPARATION METHOD AND USE THEREFOR” (Miracure Biotechnology Limited, priority 2023, dated 2025).
Read-outs that look alike come from different tables or passages of the source.

What was measured:
Assay type in all cases: cell-based
BRD4 = BRD4 (Homo sapiens, UniProt O60885); test: BRD4 degradation assay (Western-blot / Simple Western) in 22RV1 cells; settings: for activity at 0.2 µM: 22Rv1, 5 h, read-out: BRD4 degradation of 22RV1 (200 nM 5 h)
22RV1 = test: Cell proliferation assay (CellTiterGlo); settings: 22RV1 cells, 72 h compound treatment, CellTiterGlo cell viability, read-out: 22Rv1 ATP average IC50
Experimental: (§1) Test Example 1. Cell Proliferation Assay
(§2) The cell line used was 22RV1 or LNCaP, and the medium was RPMI-1640 containing 10% FBS and antibiotics. All incubations were performed at 37 °C in a humidified carbon dioxide incubator.
(§3) On day 1, cells were digested with 0.25% trypsin (containing EDTA) and collected by centrifugation. The cells were seeded in a 96-well plate (white wall/transparent bottom) at 5000 cells/well and cultured overnight.
(§4) On day 2, A stock solution of the compound at a concentration of 10 mM was subjected to an 8-fold serial dilution to obtain 8 concentration points. 2 µL of the compound solution at each concentration point was added to 98 µL of fresh medium, and the mixture was mixed homogeneously. Then, 5 µL of the compound solution diluted in the medium at each concentration point was added to 100 µL of overnight medium containing the cells, and 2 replicates were set for each concentration. The mixture was cultured for 72 h.
(§5) After 72 h of compound treatment, the plate was equilibrated to room temperature, 100 µL of CellTiterGlo (Promega) was added. The mixture was mixed homogeneously for 2 min, left to stand at room temperature for 10 min, and then read for luminescence values on a SpectraMax M5 microplate reader to evaluate cell viability. The positive control was 1% Tween-20 and the negative control was 0.1% DMSO. IC50 was generated by 4-parameter non-linear regression fitting in GraphPad Prism.

LNCaP = test: Cell proliferation assay (CellTiterGlo); settings: LNCaP cells, 72 h compound treatment, CellTiterGlo cell viability, read-out: LNCap ATP average IC50
Experimental: as §1, §2, §3, §4, §5

Row | SMILES | BRD4 degradation of 22RV1 (200 nM 5 h) (BRD4; 22RV1 cells, 200 nM, 5 h, target content as percentage of control (DMSO = 100%)) | IC50 (22RV1) [nM] | IC50 (LNCaP) [nM] | activity at 0.2 µM (BRD4) [%] | IC50 (22RV1; Homo sapiens) [nM] | IC50 (LNCaP; Homo sapiens) [nM]
1 | Cc1sc2c(c1C)C(c1ccc(C#CCN)cc1)=N[C@@H](CC(=O)OC(C)(C)C)c1nnc(C)n1-2 [GNE-0011, reference compound] | B (20% < B <50%) | < 50 | < 50 |  |  | 
2 | C=CS(=O)(=O)Nc1ccc(C2=N[C@@H](CC(=O)OC(C)(C)C)c3nnc(C)n3-c3sc(C)c(C)c32)cc1 [compound 9231] |  |  |  | < 20 | 50 to 200 | < 50
3 | C#CC(=O)Nc1ccc(C2=N[C@@H](CC(=O)OC(C)(C)C)c3nnc(C)n3-c3sc(C)c(C)c32)cc1 [compound 9260] |  |  |  | < 20 | < 50 | < 50
4 | CC#CC(=O)Nc1ccc(C2=N[C@@H](CC(=O)OC(C)(C)C)c3nnc(C)n3-c3sc(C)c(C)c32)cc1 [compound 9259] |  |  |  | 20 to 50 | < 50 | < 50
5 | C=CC(=O)Nc1ccc(C2=N[C@@H](CC(=O)OC(C)(C)C)c3nnc(C)n3-c3sc(C)c(C)c32)cc1 [compound 9230] |  |  |  | < 20 | < 50 | < 50
6 | CC#CC(=O)Nc1ccc(C2=N[C@@H](Cc3nccs3)c3nnc(C)n3-c3sc(C)c(C)c32)cc1 [compound 9253] |  |  |  | 50 to 80 | < 50 | < 50
7 | Cc1sc2c(c1C)C(c1ccc(NC(=O)CCl)cc1)=N[C@@H](Cc1nccs1)c1nnc(C)n1-2 [compound 9250] |  |  |  | 80 to 100 | < 50 | < 50
